# Assay results reported in patent US20050227300A1, “Use of alpha-tubulin acetylation levels as a biomarker for protein deacetylase inhibitors” (priority 2001, published 2005).
# Tests used:
# HCT 166 cells = assay: 2-D gel electrophoresis / western blotting with anti-acetyllysine of extracts of HDAC-2 treated cells; format: cell-based, human; details: HDAC-2 treated vs control, IEF pH 3-10
# Source text: For Identifying the protein, cell extracts of HDAC-2 treated and control HCT 166 cells are separated by 2-D gel electrophoresis with a broad range IEF gel (pH 3-10) in the first dimension and analyzed by western blotting with anti-acetyllysine.
# One set of gels is used for immunoblotting with anti-acetyllysine antibody detection and a second set is reserved for staining of the gel with Coomassie blue.
# [1] = test system: alpha-tubulin acetylation; assay: Time course of HDAC-2 induced tubulin acetylation in cell lines; format: cell-based; details: 200 nM
# Source text: Time Course of HDAC-2 Induced Tubulin Acetylation in Cell Lines
# [2] = test system: Tubulin Acetylation in HCT 116 Tumor Xenografts; assay: Tubulin acetylation in HCT 116 tumor xenografts in mice (western blotting with anti-acetylated alpha-tubulin antibody); format: in vivo
# Method: In order to correlate the antitumor activity of HDAC-2 with its induction of tubulin acetylation, levels of acetylated tubulin are examined in tumors of athymic mice bearing HCT 116 treated with HDAC-2 and control mice. Mice are dosed with 100 mg/kg of HDAC-2 and the tumors are dissected 3, 6, 16 or 24 h post dose. Tubulin acetylation levels are detected with antibodies specific for acetylated alpha-tubulin. […] Tumors are dissected 1 hour post dose and levels of acetylated tubulin determined by western blotting with the anti-acetylated alpha-tubulin antibody.
# [3] = athymic mice bearing HCT 116, 100 mg/kg, intravenous
structure (smiles),measurement,setting,value
"O=C(/C=C/c1ccc(CN(CCO)CCc2c[nH]c3ccccc23)cc1)NO [HDAC-2, N-hydroxy-3-[4-[[(2-hydroxyethyl)[2-(1H-indol-3-yl)ethyl]-amino]methyl]phenyl]-2E-2-propenamide]","anti-acetyllysine immunostaining of cell extracts (histone bands and non-histone spot around pH 4.5, later identified as acetylated alpha-tubulin)",HCT 166 cells,prominently stained bands of low molecular weight corresponding to histones are visible at the lower right corner as well as a non-histone spot around pH 4.5
same,time of maximal alpha-tubulin acetylation,[1],4 h
same,"acetylation of alpha-tubulin reached, relative to the maximal acetylation (at 4 hours)",[1]; 30 min after addition,more than 30%
same,state of cells at last time point,[1]; 18 hours,cells are visibly damaged
same,induction of tubulin acetylation in the tumors,"[2]; HCT 116 tumor bearing mice, i.v. dose as low as 2 mg/kg, 1 hour post dose",able to induce tubulin acetylation
same,Proliferating Cell Nuclear Antigen (PCNA) levels in tumors,[2]; [3],essentially invariant
same,duration of increase in acetylated alpha-tubulin in tumors,[2]; [3],at least 8 h
same,time to consistent increases in acetylated alpha-tubulin in tumors,[2]; [3],≤ 30 min
